Source: US12122780B2, “Pyrimidinyl group-containing tricyclic compound serving as c-Met inhibitor” (JIANGSU AOSAIKANG PHARMACEUTICAL CO., LTD., priority 2019, dated 2024)
pIC50: −log10 of the molar value. Where a name gives a salt, the structure may show the parent alone.

Tests used:
c-Met enzyme = c-Met enzyme (Homo sapiens (Human), UniProt P08581); assay: c-Met enzyme activity inhibition (Promega c-Met Kinase Enzyme System, ADP-Glo); type: biochemical; conditions: 10 μM ATP, 60 min, 30° C.
Protocol: To detect the inhibitory effect of the compounds on c-Met enzyme activity.
The c-Met Kinase Enzyme System was purchased from Promega. Envision multi-label analyzer (PerkinElmer).
The kinase buffer in the kit was used to dilute the enzyme, substrate, ATP and inhibitor.
The compound to be tested was diluted 5-fold to the eighth concentration with a discharge gun, i.e., from 50 μM to […], with a final DMSO concentration of 5%, and double duplicate wells experiment was set. 1 μL of each concentration gradient of the inhibitor, 2 μL of c-Met enzyme (4 ng), 2 μL of a mixture of the substrate and ATP (10 μM ATP, 0.2 μg/μL poly E4Y1) were added to the microplate, and the final concentration gradient of the compound of 10 μM was diluted to 0.13 nM. The reaction system was placed at 30° C. and the reaction was carried out for 60 minutes. When the reaction was completed, 5 μL of ADP-Glo reagent was added to each well and the reaction was carried out at 30° C. for another 40 minutes, when the reaction was completed, 10 μL of kinase detection reagent was added to each well, then the reaction was carried out at 30° C. for still another 30 minutes, chemiluminescence was read by the PerkinElmer Envision multi-label analyzer with an integration time of 0.5 seconds.
Using the equation (Sample-Min)/(Max-Min)*100% to convert the original data to the inhibition rate, the IC50 value can be obtained by curve fitting with four parameters (obtained by log(inhibitor) vs. response in GraphPad Prism—Variable slope mode).

EBC-1 cells = assay: EBC-1 cell proliferation experiment (CellTiter-Glo); type: cell-based, human; conditions: Homo sapiens, EBC-1, 72 h, 3 days
Protocol: MEM medium, fetal bovine serum, penicillin/streptomycin antibiotics were purchased from Wisent. EBC-1 cell line was purchased from Nanjing COBIO Bioscience Co., LTD. Envision multi-label analyzer (PerkinElmer).
EBC-1 cells were seeded in a white 96-well plate, […] cell suspension per well, which contained 3000 EBC-1 cells. The cell plate was placed in a carbon dioxide incubator for overnight culture.
The compound to be tested was diluted 5-fold to the eighth concentration with a discharge gun, i.e., from 2 mM to […], and double duplicate wells experiment was set. 78 μL of the medium was added to the middle plate, then 2 μL per well of gradient diluted compound was transferred to the corresponding position on the middle plate, then mixed well and 20 μL per well was transferred to the cell plate. The cell plate was cultured in a carbon dioxide incubator for 3 days. Another cell plate was prepared and the signal values were read on the day of dosing as […] to be used in the data analysis. 25 μL of Promega CellTiter-Glo was added to each well of this cell plate, and incubated at room temperature for 10 minutes to stabilize the luminescence signal. Readings were taken using a PerkinElmer Envision multi-label analyzer.
25 μL of Promega CellTiter-Glo reagent was added to each well of this cell plate, and incubated at room temperature for 10 minutes to stabilize the luminescence signal. Readings were taken using a PerkinElmer Envision multi-label analyzer.
Using the equation (Sample-Min)/(Max-Min)*100% to convert the original data to the inhibition rate, the IC50 value can be obtained by curve fitting with four parameters (obtained by “log(inhibitor) vs. response in GraphPad Prism—Variable slope mode).

[1] = tested on: human lung cancer EBC-1 xenograft tumor; assay: In vivo drug efficacy, human lung cancer EBC-1 xenograft tumor in nude mice; parameters: species or system BALB/c nude mice; conditions: for Tumor volume: n = 6
Protocol: BALB/c nude mice, female, 6-8 weeks old, weighing about 18-20 grams, animals were raised in SPF-class animal rooms in IVC (independent air supply system, constant temperature and humidity) cages (3 per cage). All cages, bedding and water were disinfected before use. All animals had free access to standard certified commercial laboratory diets. A total of 36 mice purchased from Shanghai Lingchang Biotechnology Co., Ltd. were used for research. Each animal was inoculated with 0.1 mL (5×10^6 cells) of EBC-1 cells on the right back, when the average tumor volume reached 243 mm^3, the animals were randomly grouped and the administration was started. The test compound was orally administered daily, the dose of hydrochloride of compound 24 was 10 mg/kg, the two doses of hydrochloride of compound 25 were 10 mg/kg and 20 mg/kg, respectively, and the dose of hydrochloride of compound 29 was 10 mg/kg. The tumor diameter was measured with vernier calipers twice a week. The calculation formula of tumor volume was: V=0.5a×b^2, a and b represented the long diameter and short diameter of the tumor, respectively. The anti-tumor efficacy of the compound was evaluated by TGI (%) or the relative tumor proliferation rate T/C (%). Relative tumor proliferation rate T/C (%)=TRTV/CRTV×100% (TRTV: average RTV in the treatment group; CRTV: average RTV in the negative control group). The relative tumor volume (RTV) was calculated according to the results of tumor measurement, the calculation formula was RTV=Vt/V0, wherein V0 was the tumor volume measured at the time of the grouping administration (i.e. D0), Vt was the tumor volume at a certain measurement, and TRTV and CRTV were taken on the same day. TGI (%) reflected the tumor growth inhibition rate. TGI (%)=[(1−(average tumor volume of a certain treatment group after administration-average tumor volume of the treatment group at the beginning of administration))/(average tumor volume of the solvent control group after the administration-average tumor volume of the solvent control group at the beginning of the administration)]×100%. Statistical analysis was performed based on RTV data at the end of the experiment, and SPSS software was used for analysis.

Hs746T cells = assay: Hs746T cell proliferation experiment (CellTiter-Glo); type: cell-based; conditions: Homo sapiens, 96 h, 4 days
Protocol: DMEM medium was purchased from Gibco, and fetal bovine serum was purchased from Hyclone. Hs746T cell line was purchased from ATCC. Envision multi-label analyzer (PerkinElmer).
Hs746T cells were seeded in a 384-well plate, 50 μL of cell suspension per well, which contained 1500 Hs746T cells. The cell plate was placed in a carbon dioxide incubator for overnight culture.
The compounds to be tested were 3-fold diluted into 9 concentrations with Tecan, double-duplicate well experiment was set, and the final compound concentrations added to the 384-well cell plate were 1000 nM to 0.15 nM. The cell plate was cultured in a carbon dioxide incubator for 4 days.
After 4 days, 25 μL of Promega CellTiter-Glo reagent was added to each well of this cell plate, and incubated at room temperature for 10 minutes to stabilize the luminescence signal. Readings were taken using a PerkinElmer Envision multi-label analyzer.
The action curves of the compounds were automatically fitted using Xlfit software and the values of IC50 were calculated, High control was the values of DMSO-treated wells and Low control was the values of cell-free medium wells.

c-Met enzyme, sequence (P08581 956-1390): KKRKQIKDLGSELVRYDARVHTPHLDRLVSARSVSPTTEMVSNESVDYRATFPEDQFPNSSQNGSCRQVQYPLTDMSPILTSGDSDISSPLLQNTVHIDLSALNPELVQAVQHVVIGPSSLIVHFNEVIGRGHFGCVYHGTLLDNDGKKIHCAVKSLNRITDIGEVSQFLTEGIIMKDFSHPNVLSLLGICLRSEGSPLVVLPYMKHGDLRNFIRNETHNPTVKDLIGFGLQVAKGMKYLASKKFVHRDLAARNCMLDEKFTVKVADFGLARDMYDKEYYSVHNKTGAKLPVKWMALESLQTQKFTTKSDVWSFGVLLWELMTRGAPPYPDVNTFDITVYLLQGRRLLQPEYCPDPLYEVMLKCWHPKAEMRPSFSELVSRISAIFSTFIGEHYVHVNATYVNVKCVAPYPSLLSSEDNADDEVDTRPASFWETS

Row | Compound | pIC50 (c-Met enzyme) | pIC50 (EBC-1 cells) | pIC50 (Hs746T cells) | other results
1 | CCN1CCC(COc2cnc(-c3ccc(F)c(Cn4c(=O)ccn5c6cc(C#N)ccc6nc45)c3)nc2)CC1 [Hydrochloride of compound 29] | 8.20 | 7.99 |  | Tumor volume ([1]; 10 mg/kg oral daily (stopped after 15 days), day 18, mean ± standard error): 218 ± 50 mm^3; Tumor volume ([1]; 10 mg/kg oral daily (stopped after 15 days), day 21, mean ± standard error): 243 ± 56 mm^3; Tumor volume ([1]; 10 mg/kg oral daily (stopped after 15 days), day 25, mean ± standard error): 337 ± 83 mm^3; Tumor volume ([1]; 10 mg/kg oral daily (stopped after 15 days), day 25, mean ± standard error, listed as hydrochloride of compound 29): 337 mm^3; Tumor volume ([1]; 10 mg/kg oral daily (stopped after 15 days), day 27, mean ± standard error): 412 ± 100 mm^3; TGI (tumor growth inhibition rate) ([1]; 10 mg/kg oral daily, 25th day): 94.8%; TRTV/CRTV (relative tumor proliferation rate T/C) ([1]; 10 mg/kg oral daily, 25th day): 16.2%; Tumor volume ([1]; 10 mg/kg oral daily, day 0, mean ± standard error): 243 ± 17 mm^3; Tumor volume ([1]; 10 mg/kg oral daily, day 4, mean ± standard error): 299 ± 13 mm^3; Tumor volume ([1]; 10 mg/kg oral daily, day 7, mean ± standard error): 318 ± 21 mm^3; Tumor volume ([1]; 10 mg/kg oral daily, day 11, mean ± standard error): 294 ± 27 mm^3; Tumor volume ([1]; 10 mg/kg oral daily, day 14, mean ± standard error): 205 ± 37 mm^3
2 | N#Cc1ccc2nc3n(Cc4cccc(-c5ncc(OCC6CCN(CCO)CC6)cn5)c4)c(=O)ccn3c2c1 [Hydrochloride of compound 30] | 8.13 | 8.15 | 8.70 | 
3 | CN1CCC(O)(COc2cnc(-c3cccc(Cn4c(=O)ccn5c6cc(C#N)ccc6nc45)c3)nc2)CC1 [Hydrochloride of compound 34] | 8.55 | 8.31 | 8.59 | 
4 | COC1(COc2cnc(-c3cccc(Cn4c(=O)ccn5c6cc(C#N)ccc6nc45)c3)nc2)CCN(C)CC1 [Hydrochloride of compound 36] | 8.13 | 8.21 | 8.57 | 
5 | CC(C)N1CCC(O)(COc2cnc(-c3cccc(Cn4c(=O)ccn5c6cc(C#N)ccc6nc45)c3)nc2)CC1 [Hydrochloride of compound 37] | 8.37 | 8.31 | 8.60 | 
6 | COC1(COc2cnc(-c3cccc(Cn4c(=O)ccn5c6cc(C#N)ccc6nc45)c3)nc2)CCN(C(C)C)CC1 [Hydrochloride of compound 38] | 8.12 | 8.07 | 8.49 | 
7 | COC1(COc2cnc(-c3cccc(Cn4c(=O)ccn5c6cc(C#N)ccc6nc45)c3)nc2)CCN(CCO)CC1 [Hydrochloride of compound 41] | 8.18 | 8.29 | 8.64 | 
